# Measurements: ChEMBL document CHEMBL3885881, “DrugMatrix”
# Species on record: Rattus norvegicus
# Assay: DrugMatrix - Regimen: Daily Repeat
# Assay type: toxicity, organism-based, Sprague-Dawley
# Set-up: regimen Daily Repeat, gender Male, age 6-8 weeks
# Conditions: in vivo, po, route oral GAVAGE, […]; for ABSOLUTE BASOPHIL / ABSOLUTE EOSINOPHIL / ABSOLUTE LYMPHOCYTE / ABSOLUTE MONOCYTE / ABSOLUTE SEGMENTED NEUTROPHIL / BASOPHIL / EOSINOPHIL / ERYTHROCYTE COUNT / HEMATOCRIT / HEMOGLOBIN / LEUKOCYTE COUNT / LYMPHOCYTE / MEAN CORPUSCULAR HEMOGLOBIN / MEAN CORPUSCULAR HEMOGLOBIN CONCENTRATION / MEAN CORPUSCULAR VOLUME / MONOCYTE / NEUTROPHIL / NUCLEATED RED BLOOD CELLS / PLATELET COUNT: tissue Blood; for ALANINE AMINOTRANSFERASE / ALBUMIN / ALKALINE PHOSPHATASE / ASPARTATE AMINOTRANSFERASE / BLOOD UREA NITROGEN / CARBON DIOXIDE / CHLORIDE / CHOLESTEROL / CREATINE PHOSPHOKINASE / CREATININE / GLUCOSE / LACTATE DEHYDROGENASE / LIPASE / PHOSPHORUS / POTASSIUM / SODIUM / TOTAL BILIRUBIN / TOTAL PROTEIN / URIC ACID: tissue Plasma
# [1] = 30 mg/kg, 120 h, dose level Low, time 5 day
# [2] = 1000 mg/kg, 72 h, dose level High, time 3 day
# [3] = 1000 mg/kg, 120 h, dose level High, time 5 day
structure (smiles),measurement,setting,value
CCCCC(=O)N(Cc1ccc(-c2ccccc2-c2nnn[nH]2)cc1)[C@H](C(=O)O)C(C)C,ABSOLUTE BASOPHIL,[1],0 CELLS/uL
same,ABSOLUTE EOSINOPHIL,[1],0 CELLS/uL
same,ABSOLUTE LYMPHOCYTE,[1],14863.33 CELLS/uL
same,ABSOLUTE MONOCYTE,[1],58.33 CELLS/uL
same,ABSOLUTE SEGMENTED NEUTROPHIL,[1],1411.67 CELLS/uL
same,BASOPHIL,[1],0%
same,EOSINOPHIL,[1],0%
same,ERYTHROCYTE COUNT,[1],5.54 x10E6/uL
same,HEMATOCRIT,[1],34.23%
same,HEMOGLOBIN,[1],13.5 G/DL
same,LEUKOCYTE COUNT,[1],16.33 x10E3/uL
same,LYMPHOCYTE,[1],91%
same,MEAN CORPUSCULAR HEMOGLOBIN,[1],24.4 pg
same,MEAN CORPUSCULAR HEMOGLOBIN CONCENTRATION,[1],39.43 G/DL
same,MEAN CORPUSCULAR VOLUME,[1],61.87 fL
same,MONOCYTE,[1],0.33%
same,NEUTROPHIL,[1],8.67%
same,NUCLEATED RED BLOOD CELLS,[1],0 /100WBC
same,PLATELET COUNT,[1],1196 x10E3/uL
same,ALANINE AMINOTRANSFERASE,[1],63.67 u/L
same,ALBUMIN,[1],4.07 G/DL
same,ALKALINE PHOSPHATASE,[1],455.33 u/L
same,ASPARTATE AMINOTRANSFERASE,[1],87.33 u/L
same,BLOOD UREA NITROGEN,[1],15.67 mg/dL
same,CARBON DIOXIDE,[1],23.33 mmol/L
same,CHLORIDE,[1],102.33 MEQ/L
same,CHOLESTEROL,[1],63 mg/dL
same,CREATINE PHOSPHOKINASE,[1],339 u/L
same,CREATININE,[1],0.18 mg/dL
same,GLUCOSE,[1],206.33 mg/dL
same,LACTATE DEHYDROGENASE,[1],183 u/L
same,LIPASE,[1],9.33 u/L
same,PHOSPHORUS,[1],12.9 mg/dL
same,POTASSIUM,[1],6.08 MEQ/L
same,SODIUM,[1],140.77 MEQ/L
same,TOTAL BILIRUBIN,[1],0.13 mg/dL
same,TOTAL PROTEIN,[1],5.6 G/DL
same,URIC ACID,[1],2.2 mg/dL
same,ABSOLUTE BASOPHIL,[2],0 CELLS/uL
same,ABSOLUTE EOSINOPHIL,[2],0 CELLS/uL
same,ABSOLUTE LYMPHOCYTE,[2],6741.67 CELLS/uL
same,ABSOLUTE MONOCYTE,[2],52 CELLS/uL
same,ABSOLUTE SEGMENTED NEUTROPHIL,[2],673 CELLS/uL
same,BASOPHIL,[2],0%
same,EOSINOPHIL,[2],0%
same,ERYTHROCYTE COUNT,[2],5.05 x10E6/uL
same,HEMATOCRIT,[2],31%
same,HEMOGLOBIN,[2],12.27 G/DL
same,LEUKOCYTE COUNT,[2],7.47 x10E3/uL
same,LYMPHOCYTE,[2],90.67%
same,MEAN CORPUSCULAR HEMOGLOBIN,[2],24.33 pg
same,MEAN CORPUSCULAR HEMOGLOBIN CONCENTRATION,[2],39.6 G/DL
same,MEAN CORPUSCULAR VOLUME,[2],61.43 fL
same,MONOCYTE,[2],0.67%
same,NEUTROPHIL,[2],8.67%
same,NUCLEATED RED BLOOD CELLS,[2],0 /100WBC
same,PLATELET COUNT,[2],1278.67 x10E3/uL
same,ALANINE AMINOTRANSFERASE,[2],56.67 u/L
same,ALBUMIN,[2],3.8 G/DL
same,ALKALINE PHOSPHATASE,[2],381.67 u/L
same,ASPARTATE AMINOTRANSFERASE,[2],79.67 u/L
same,BLOOD UREA NITROGEN,[2],47.33 mg/dL
same,CARBON DIOXIDE,[2],23 mmol/L
same,CHLORIDE,[2],100.67 MEQ/L
same,CHOLESTEROL,[2],69.33 mg/dL
same,CREATINE PHOSPHOKINASE,[2],401 u/L
same,CREATININE,[2],0.56 mg/dL
same,GLUCOSE,[2],149 mg/dL
same,LACTATE DEHYDROGENASE,[2],105.67 u/L
same,LIPASE,[2],10 u/L
same,PHOSPHORUS,[2],9.53 mg/dL
same,POTASSIUM,[2],7.33 MEQ/L
same,SODIUM,[2],138.9 MEQ/L
same,TOTAL BILIRUBIN,[2],0.2 mg/dL
same,TOTAL PROTEIN,[2],5.27 G/DL
same,URIC ACID,[2],1.17 mg/dL
same,ABSOLUTE BASOPHIL,[3],0 CELLS/uL
same,ABSOLUTE EOSINOPHIL,[3],82 CELLS/uL
same,ABSOLUTE LYMPHOCYTE,[3],18525.33 CELLS/uL
same,ABSOLUTE MONOCYTE,[3],112.67 CELLS/uL
same,ABSOLUTE SEGMENTED NEUTROPHIL,[3],746.67 CELLS/uL
same,BASOPHIL,[3],0%
same,EOSINOPHIL,[3],0.33%
same,ERYTHROCYTE COUNT,[3],5.79 x10E6/uL
same,HEMATOCRIT,[3],35.4%
same,HEMOGLOBIN,[3],13.73 G/DL
same,LEUKOCYTE COUNT,[3],19.47 x10E3/uL
same,LYMPHOCYTE,[3],95%
same,MEAN CORPUSCULAR HEMOGLOBIN,[3],23.7 pg
same,MEAN CORPUSCULAR HEMOGLOBIN CONCENTRATION,[3],38.8 G/DL
same,MEAN CORPUSCULAR VOLUME,[3],61.13 fL
same,MONOCYTE,[3],0.67%
same,NEUTROPHIL,[3],4%
same,NUCLEATED RED BLOOD CELLS,[3],0 /100WBC
same,PLATELET COUNT,[3],1264 x10E3/uL
same,ALANINE AMINOTRANSFERASE,[3],55.33 u/L
same,ALBUMIN,[3],4.03 G/DL
same,ALKALINE PHOSPHATASE,[3],436 u/L
same,ASPARTATE AMINOTRANSFERASE,[3],82.33 u/L
same,BLOOD UREA NITROGEN,[3],56 mg/dL
same,CARBON DIOXIDE,[3],23.33 mmol/L
same,CHLORIDE,[3],105 MEQ/L
same,CHOLESTEROL,[3],70.67 mg/dL
same,CREATINE PHOSPHOKINASE,[3],365 u/L
same,CREATININE,[3],0.42 mg/dL
same,GLUCOSE,[3],175.33 mg/dL
same,LACTATE DEHYDROGENASE,[3],181.67 u/L
same,LIPASE,[3],10.33 u/L
same,PHOSPHORUS,[3],11.47 mg/dL
same,POTASSIUM,[3],7.6 MEQ/L
same,SODIUM,[3],140.73 MEQ/L
same,TOTAL BILIRUBIN,[3],0.17 mg/dL
same,TOTAL PROTEIN,[3],5.87 G/DL
same,URIC ACID,[3],1.6 mg/dL
